Reference: patent US20230203059A1, “MACROCYCLIC JAK INHIBITOR AND USES THEREOF” (Biopolar Hongye (Guangdong) Pharmaceutical Co. Ltd., priority 2020, published 2023)

Experiments:
Format in all cases: biochemical
TYK2 = TYK2 (Homo sapiens, UniProt P29597); assay: JAK kinase activity, homogeneous time-resolved fluorescence (TYK2 reaction system); conditions: ATP 2 μM, TYK2 protein 0.2 ng/μL; read-out: TYK 2 activity
Outline: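 Activity read as the 665 nm/615 nm ratio after adding EDTA-containing detection mix with anti-phospho-substrate antibody and XL-615. Beforehand, 0.2 ng/μL TYK2, 2 μM ATP, substrate and compound reacted 1 h in pH 7.0 Hepes buffer with MgCl2 and DTT. IC50 fitted with Hill-slope equation.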

JAK3 = target: T1, JAK3 (Homo sapiens, UniProt P52333); assay: JAK kinase activity, homogeneous time-resolved fluorescence (JAK3 reaction system); conditions: ATP 2 μM, JAK3 protein 0.04 ng/μL; read-out: JAK 3 activity
T1 sequence (P52333 1-1124): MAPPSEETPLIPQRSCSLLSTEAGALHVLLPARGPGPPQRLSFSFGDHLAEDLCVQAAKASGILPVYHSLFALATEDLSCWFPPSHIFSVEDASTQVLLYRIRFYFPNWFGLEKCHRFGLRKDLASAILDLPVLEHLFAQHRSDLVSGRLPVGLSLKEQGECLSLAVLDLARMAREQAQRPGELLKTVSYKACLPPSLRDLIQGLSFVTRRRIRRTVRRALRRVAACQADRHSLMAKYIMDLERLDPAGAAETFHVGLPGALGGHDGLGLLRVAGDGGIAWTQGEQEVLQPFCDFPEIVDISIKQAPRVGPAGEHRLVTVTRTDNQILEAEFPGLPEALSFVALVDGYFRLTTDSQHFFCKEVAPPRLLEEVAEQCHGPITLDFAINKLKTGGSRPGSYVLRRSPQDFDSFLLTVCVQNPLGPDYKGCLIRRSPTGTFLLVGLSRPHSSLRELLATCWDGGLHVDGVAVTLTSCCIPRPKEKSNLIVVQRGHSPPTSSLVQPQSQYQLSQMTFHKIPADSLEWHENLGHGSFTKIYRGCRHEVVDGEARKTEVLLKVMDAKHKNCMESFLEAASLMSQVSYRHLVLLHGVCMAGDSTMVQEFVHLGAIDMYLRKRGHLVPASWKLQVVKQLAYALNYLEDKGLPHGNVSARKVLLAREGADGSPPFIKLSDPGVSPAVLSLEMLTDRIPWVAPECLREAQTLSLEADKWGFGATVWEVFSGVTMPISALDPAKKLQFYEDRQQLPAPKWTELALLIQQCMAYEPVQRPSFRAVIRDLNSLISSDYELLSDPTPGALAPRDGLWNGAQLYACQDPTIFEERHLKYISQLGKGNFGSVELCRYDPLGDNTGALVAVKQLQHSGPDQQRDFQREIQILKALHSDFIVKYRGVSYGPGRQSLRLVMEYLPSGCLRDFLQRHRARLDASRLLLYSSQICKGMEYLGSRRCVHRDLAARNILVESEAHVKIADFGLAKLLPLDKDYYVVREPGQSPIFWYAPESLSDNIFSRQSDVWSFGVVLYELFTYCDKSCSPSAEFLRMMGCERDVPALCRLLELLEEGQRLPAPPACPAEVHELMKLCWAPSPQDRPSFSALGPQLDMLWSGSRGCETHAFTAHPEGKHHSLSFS

JAK1 = JAK1 (Homo sapiens, UniProt P23458); assay: JAK kinase activity, homogeneous time-resolved fluorescence (JAK1 reaction system); conditions: ATP 2 μM, JAK1 protein 0.2 ng/μL; read-out: JAK 1 activity
Outline: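 Kinase activity read as the 665 nm/615 nm time-resolved fluorescence ratio (320 nm excitation) after EDTA-containing antibody and XL-615 addition. Reaction ran 1 h at pH 7.0 (Hepes, MgCl2, DTT) with 0.2 ng/μL JAK1 and ATP at 2 μM. IC50 derived by Hill-slope fit.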

JAK2 = JAK2 (Homo sapiens, UniProt O60674); assay: JAK kinase activity, homogeneous time-resolved fluorescence (JAK2 reaction system); conditions: ATP 2 μM, JAK2 protein 0.01 ng/μL
Outline: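 IC50 derived by Hill-equation fit of the 665/615 nm time-resolved fluorescence ratio after EDTA-containing detection mix with anti-phosphosubstrate antibody. Preceding 1 h reaction contained 2 μM ATP, 0.01 ng/μL JAK2, substrate, 50 mM Hepes pH 7.0, 5 mM MgCl2, 1 mM DTT.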

Chain of TYK2 (P29597 whole entry): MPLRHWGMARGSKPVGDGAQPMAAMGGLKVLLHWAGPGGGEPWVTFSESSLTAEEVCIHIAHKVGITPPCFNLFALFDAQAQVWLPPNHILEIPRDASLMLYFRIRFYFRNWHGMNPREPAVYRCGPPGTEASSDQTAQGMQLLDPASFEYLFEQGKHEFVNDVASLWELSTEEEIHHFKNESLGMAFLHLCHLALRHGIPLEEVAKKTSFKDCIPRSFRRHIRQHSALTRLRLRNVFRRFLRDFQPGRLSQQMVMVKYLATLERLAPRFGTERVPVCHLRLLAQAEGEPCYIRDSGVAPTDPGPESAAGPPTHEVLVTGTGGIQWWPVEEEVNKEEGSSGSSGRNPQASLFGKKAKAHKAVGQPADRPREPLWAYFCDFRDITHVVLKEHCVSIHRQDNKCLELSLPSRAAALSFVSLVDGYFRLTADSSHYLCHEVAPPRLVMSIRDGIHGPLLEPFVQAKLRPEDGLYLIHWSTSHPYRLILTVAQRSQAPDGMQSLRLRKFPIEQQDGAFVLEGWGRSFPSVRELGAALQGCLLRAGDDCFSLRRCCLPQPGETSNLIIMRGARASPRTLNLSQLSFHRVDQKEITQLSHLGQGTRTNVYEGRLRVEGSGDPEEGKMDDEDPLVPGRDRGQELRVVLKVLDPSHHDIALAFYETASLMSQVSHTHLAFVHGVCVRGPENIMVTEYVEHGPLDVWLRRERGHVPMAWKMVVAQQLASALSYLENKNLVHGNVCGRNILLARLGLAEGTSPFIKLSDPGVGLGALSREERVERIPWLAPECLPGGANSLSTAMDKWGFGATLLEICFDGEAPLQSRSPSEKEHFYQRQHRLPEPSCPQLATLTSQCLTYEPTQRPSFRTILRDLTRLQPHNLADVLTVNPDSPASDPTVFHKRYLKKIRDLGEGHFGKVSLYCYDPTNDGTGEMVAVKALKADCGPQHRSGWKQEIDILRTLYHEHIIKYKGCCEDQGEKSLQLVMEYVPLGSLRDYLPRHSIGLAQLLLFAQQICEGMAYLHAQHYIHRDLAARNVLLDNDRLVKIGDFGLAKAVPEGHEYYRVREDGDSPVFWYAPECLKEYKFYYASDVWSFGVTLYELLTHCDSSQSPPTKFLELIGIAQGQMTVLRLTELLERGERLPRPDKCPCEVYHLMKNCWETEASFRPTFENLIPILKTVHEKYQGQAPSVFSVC
Chain of JAK1 (P23458 whole entry): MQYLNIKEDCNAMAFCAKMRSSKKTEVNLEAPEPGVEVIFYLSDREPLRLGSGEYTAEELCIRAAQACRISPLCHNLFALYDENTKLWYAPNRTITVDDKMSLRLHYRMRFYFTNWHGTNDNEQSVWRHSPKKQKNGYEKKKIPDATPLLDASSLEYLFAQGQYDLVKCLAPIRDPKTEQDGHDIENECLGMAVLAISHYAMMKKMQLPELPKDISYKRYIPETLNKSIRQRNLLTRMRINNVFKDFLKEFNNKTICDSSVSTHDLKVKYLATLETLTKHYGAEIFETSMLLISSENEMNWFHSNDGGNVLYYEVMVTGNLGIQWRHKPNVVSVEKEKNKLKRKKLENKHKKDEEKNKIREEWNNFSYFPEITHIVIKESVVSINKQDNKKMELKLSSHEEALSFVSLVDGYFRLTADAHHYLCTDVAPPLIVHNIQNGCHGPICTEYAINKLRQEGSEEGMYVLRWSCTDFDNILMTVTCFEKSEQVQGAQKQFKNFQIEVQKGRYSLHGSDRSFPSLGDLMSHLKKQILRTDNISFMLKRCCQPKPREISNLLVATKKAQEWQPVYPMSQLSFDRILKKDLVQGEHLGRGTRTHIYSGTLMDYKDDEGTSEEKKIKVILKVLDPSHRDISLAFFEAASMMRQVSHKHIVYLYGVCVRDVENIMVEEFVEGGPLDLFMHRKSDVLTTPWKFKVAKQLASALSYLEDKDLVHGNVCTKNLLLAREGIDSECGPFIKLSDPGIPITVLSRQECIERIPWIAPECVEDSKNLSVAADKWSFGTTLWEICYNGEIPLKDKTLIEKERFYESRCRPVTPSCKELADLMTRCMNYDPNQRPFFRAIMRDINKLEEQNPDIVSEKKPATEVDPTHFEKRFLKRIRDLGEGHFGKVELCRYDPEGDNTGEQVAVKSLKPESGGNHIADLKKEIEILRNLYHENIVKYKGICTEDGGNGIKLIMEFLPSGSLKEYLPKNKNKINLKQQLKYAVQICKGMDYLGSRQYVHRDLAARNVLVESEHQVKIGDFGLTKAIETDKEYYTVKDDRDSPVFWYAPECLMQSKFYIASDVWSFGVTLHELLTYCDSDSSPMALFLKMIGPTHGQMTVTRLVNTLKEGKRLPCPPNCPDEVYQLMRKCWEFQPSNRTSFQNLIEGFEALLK
Chain of JAK2 (O60674 whole entry): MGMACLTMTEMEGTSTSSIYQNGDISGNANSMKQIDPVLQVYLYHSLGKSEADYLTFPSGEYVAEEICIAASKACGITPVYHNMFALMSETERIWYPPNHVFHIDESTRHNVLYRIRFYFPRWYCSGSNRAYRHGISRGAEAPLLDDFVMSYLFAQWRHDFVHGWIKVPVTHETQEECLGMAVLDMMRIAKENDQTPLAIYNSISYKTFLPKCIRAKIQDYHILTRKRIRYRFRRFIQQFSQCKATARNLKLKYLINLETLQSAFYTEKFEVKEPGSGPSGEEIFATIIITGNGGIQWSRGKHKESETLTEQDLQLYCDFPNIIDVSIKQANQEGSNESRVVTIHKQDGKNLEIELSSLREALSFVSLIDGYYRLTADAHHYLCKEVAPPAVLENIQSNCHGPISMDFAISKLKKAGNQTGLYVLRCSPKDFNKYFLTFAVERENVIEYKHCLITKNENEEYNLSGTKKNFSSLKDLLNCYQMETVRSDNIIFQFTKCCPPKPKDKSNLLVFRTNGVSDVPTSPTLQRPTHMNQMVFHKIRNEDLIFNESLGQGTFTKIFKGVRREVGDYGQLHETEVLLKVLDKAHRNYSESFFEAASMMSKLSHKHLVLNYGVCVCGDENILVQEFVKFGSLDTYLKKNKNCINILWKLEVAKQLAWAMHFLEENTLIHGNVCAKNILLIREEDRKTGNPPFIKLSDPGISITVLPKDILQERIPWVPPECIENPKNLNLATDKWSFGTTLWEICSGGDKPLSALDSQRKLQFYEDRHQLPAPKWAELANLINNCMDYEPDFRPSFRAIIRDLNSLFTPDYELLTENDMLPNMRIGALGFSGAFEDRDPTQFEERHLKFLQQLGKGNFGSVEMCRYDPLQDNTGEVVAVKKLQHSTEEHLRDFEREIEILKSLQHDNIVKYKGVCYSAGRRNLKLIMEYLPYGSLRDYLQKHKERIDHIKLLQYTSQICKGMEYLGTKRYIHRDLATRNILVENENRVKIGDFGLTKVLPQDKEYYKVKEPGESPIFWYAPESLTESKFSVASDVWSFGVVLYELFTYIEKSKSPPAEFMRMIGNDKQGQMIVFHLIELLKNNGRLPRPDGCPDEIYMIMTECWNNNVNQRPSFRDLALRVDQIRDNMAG

| Structure (SMILES) | IC50 (TYK2) [nM] | IC50 (JAK3) [nM] | IC50 (JAK1) [nM] | IC50 (JAK2) [nM] |
| --- | --- | --- | --- | --- |
| CC1CCNC(=O)c2ccc(c([N+](=O)[O-])c2)-c2ccnc(n2)Nc2ccc(Oc3cccnc3)c(c2)COC1 (centres unmarked) [Example 129, 8-methyl-1^2-nitro-4^4-(pyridin-3-ox-yl)-6-oxa-3,11-diaza-2(4,2)-pyrimi-dina-1(1,4),4(1,3)-dibenzenacyclo-dodecaphan-12-one] | > 10000 | 101 to 1000 | 1000 to 10000 | 1000 to 10000 |
| Nc1cc2ccc1-c1ccnc(n1)Nc1ccc(OCC3CC3)c(c1)COCCCCNC2=O [Example 112, 1^2-amino-4^4-(cyclopropylmethoxy)-6-oxa-3,11-diaza-2(4,2)-pyrimidi-na-1(1,4),4(1,3)-dibenzenacyclo-dodecaphan-12-one] | > 10000 | < 10 | 1000 to 10000 | 101 to 1000 |
| O=C1NCCCCOCc2cc(ccc2O)Nc2nccc(n2)-c2ccc1cc2[N+](=O)[O-] [Example 81, 4^4-hydroxy-1-nitro-6-oxa-3,11-diaza-2(4,2)-pyrimidina-1(1,4),4(1,3)-di-benzenacyclododecaphan-12-one] | > 10000 | 101 to 1000 | 1000 to 10000 | 1000 to 10000 |
| CC(C)COc1ccc2cc1COc1ccc(cc1)NC(=O)c1ccc(c(N)c1)-c1ccnc(n1)N2 [Example 202, 1^2-amino-4^4-isobutoxy-6-oxa-3,8-di-aza-2(4,2)-pyrimidina-1,7(1,4),4(1,3)-tribenzenacyclononaphane-9-one] | > 10000 | 11 to 100 | 1000 to 10000 | 1000 to 10000 |
| CC1CCNC(=O)c2ccc(c(N)c2)-c2ccnc(n2)Nc2ccc(OCC3CCCCC3)c(c2)COC1 (centres unmarked) [Example 149, 1^2-amino-4^4-(cyclohexylmethoxy)-8-methyl-6-oxa-3,11-diaza-2(4,2)-pyrimidina-1(1,4),4(1,3)-dibenzena-cyclododecaphan-12-one] | > 10000 | 11 to 100 | 1000 to 10000 | 1000 to 10000 |
| O=C1NCCCCOCc2cc(ccc2OCc2cccc3c2CCO3)Nc2nccc(n2)-c2ccc1cc2[N+](=O)[O-] [Example 150, 4^4-((2,3-dihydroxybenzofuran-4-yl)methoxy)-1^2-nitro-6-oxa-3,11-diaza-2(4,2)-pyrimidina-1(1,4),4(1,3)-dibenzenacyclododecaphan-12-one] | > 10000 | 1000 to 10000 | > 10000 | > 10000 |
| Nc1cc2ccc1-c1ccnc(n1)Nc1ccc(Oc3cccnc3)c(c1)COc1ccc(cc1)NC2=O [Example 205, 1^2-amino-4^4-(pyridin-3-oxy)-6-oxa-3,8-diaza-2(4,2)-pyrimidina-1,7(1,4),4(1,3)-tribenzenacyclononaphane-9-one] | > 10000 | 11 to 100 | 1000 to 10000 | 1000 to 10000 |
| CC1CCNC(=O)c2ccc(c(N)c2)-c2ccnc(n2)Nc2ccc(OCC3CCCC3)c(c2)COC1 (centres unmarked) [Example 131, 1^2-amino-4^4-(cyclopentylmethoxy)-8-methyl-6-oxa-3,11-diaza-2(4,2)-pyrimidina-1(1,4),4(1,3)-dibenzena-cyclododecaphan-12-one] | > 10000 | 11 to 100 | 1000 to 10000 | 101 to 1000 |
| Nc1cc2ccc1-c1ccnc(n1)Nc1ccc(Oc3cccc(F)c3)c(c1)COCCCCNC2=O [Example 102, 1^2-amino-4^4-(3-fluorophenoxy)-6-oxa-3,11-diaza-2(4,2)-pyrimidina-1(1,4),4(1,3)-dibenzenacyclodode-caphan-12-one] | > 10000 | 11 to 100 | 1000 to 10000 | 1000 to 10000 |
| Nc1cc2ccc1-c1ccnc(n1)Nc1ccc(OC3CCC3)c(c1)COCCCCNC2=O [Example 79, 1^2-amino-4^4-cyclobutoxy-6-oxa-3,11-diaza-2(4,2)-pyrimidina-1(1,4),4(1,3)-dibenzenacyclododecaphan-12-one] | 1000 to 10000 | 11 to 100 | 101 to 1000 | 101 to 1000 |
| CC1CCNC(=O)c2ccc(c(N)c2)-c2ccnc(n2)Nc2ccc(OCC(F)(F)F)c(c2)COC1 (centres unmarked) [Example 132] | > 10000 | < 10 | 1000 to 10000 | 101 to 1000 |
| O=C1NCCCCOCc2cc(ccc2OCC2Cc3ccccc3C2)Nc2nccc(n2)-c2ccc1cc2[N+](=O)[O-] [Example 122, 4^4-((2,3-dihydro-1H-inden-2-yl)methoxy)-1^2-nitro-6-oxa-3,11-diaza-2(4,2)-pyrimidina-1(1,4),4(1,3)-dibenzenacyclododecaphan-12-one] | > 10000 | 101 to 1000 | > 10000 | > 10000 |
| Nc1cc2ccc1-c1ccnc(n1)Nc1ccc(OCC3Cc4ccccc4O3)c(c1)COCCCCNC2=O (centres unmarked) [Example 155, 1^2-amino-4^4-((2,3-dihydroxybenzo-furan-2-yl)methoxy)-6-oxa-3,11-di-aza-2(4,2)-pyrimidina-1(1,4),4(1,3)-dibenzenacyclododecaphan-12-one] | 1000 to 10000 | 11 to 100 | 1000 to 10000 | 101 to 1000 |

Second part, the molecule after the results:

| IC50 (TYK2) [nM] | IC50 (JAK3) [nM] | IC50 (JAK1) [nM] | IC50 (JAK2) [nM] | Structure (SMILES) |
| --- | --- | --- | --- | --- |
| 1000 to 10000 | 11 to 100 | 1000 to 10000 | 101 to 1000 | Cc1cc2ccc1-c1ccnc(n1)Nc1ccc(N3CCOCC3)c(c1)COCCCCNC2=O [Example 23, 1^2-methyl-4^4-morpholin-6-oxa-3,11-diaza-2(4,2)-pyrimidina-1(1,4),4(1,3)-dibenzenacyclododecaphan-12-one] |
| 11 to 100 | 11 to 100 | 11 to 100 | 11 to 100 | Cc1cnc2nc1-c1ccc(cc1)C(=O)NCCCCOCc1cc(ccc1N1CCOCC1)N2 [Example 5, 2^5-methyl-4^4-morpholin-6-oxa-3,11-diaza-2(4,2)-pyrimidina-1(1,4),4(1,3)-dibenzenacyclododecaphan-12-one] |
| 101 to 1000 | 11 to 100 | 101 to 1000 | 11 to 100 | CN1CCN(c2ccc3cc2COCCCCNC(=O)c2ccc(cc2)-c2ccnc(n2)N3)CC1 [Example 7, 4^4-(4-methylpiperazin-1-)-6-oxa-3,11-diaza-2(4,2)-pyrimidina-1(1,4),4(1,3)-dibenzenacyclododecaphan-12-one] |
| 1000 to 10000 | 101 to 1000 | 101 to 1000 | 101 to 1000 | Cc1ccc2cc1COCCCCNC(=O)c1ccc(c(F)c1)-c1ccnc(n1)N2 [Example 38, 1^2-fluoro-4^4-methyl-6-oxa-3,11-diaza-2(4,2)-pyrimidina-1(1,4),4(1,3)-di-benzenacyclododecaphan-12-one] |
| 101 to 1000 | 11 to 100 | 101 to 1000 | 11 to 100 | COc1cnc2nc1-c1ccc(cc1)C(=O)NCCCCOCc1cc(ccc1N1CCOCC1)N2 [Example 26, 2^5-methoxy-4^4-morpholin-6-oxa-3,11-diaza-2(4,2)-pyrimidina-1(1,4),4(1,3)-dibenzenacyclododecaphan-12-one] |
| 1000 to 10000 | 11 to 100 | 1000 to 10000 | 1000 to 10000 | COc1cc(Cl)cc(F)c1COc1ccc2cc1COCCCCNC(=O)c1ccc(c(N)c1)-c1ccnc(n1)N2 [Example 193, 1^2-amino-4^4-((4-chloro-2-fluoro-6-methoxybenzyl)oxy)-6-oxa-3,11-diaza-2(4,2)-pyrimidina-1(1,4),4(1,3)-dibenzenacyclododecaphan-12-one] |
| 1000 to 10000 | < 10 | 1000 to 10000 | 101 to 1000 | CC1CCNC(=O)c2ccc(c(N)c2)-c2ccnc(n2)Nc2ccc(OC3CCCOC3)c(c2)COC1 (centres unmarked) [Example 138] |
